Source: article PMC10777851, “SMT-738: a novel small-molecule inhibitor of bacterial lipoprotein transport targeting Enterobacteriaceae” (Antimicrobial Agents and Chemotherapy, 2023)
“And” between values parts separate entries of the source, which are not always exact repeats. Identical values can stand only once.

Assays:
[1] = Cytotoxicity assay, positive control (cell line not stated); assay type: cell-based; settings: human
[2] = test system: K. pneumoniae; test: MIC by broth microdilution (CLSI) against K. pneumoniae; assay type: cell-based, Klebsiella pneumoniae
Experimental: (§1) MIC tests were performed by broth microdilution in-line with CLSI susceptibility testing standards ([20], [21]) either in-house or at IHMA (Europe and USA) or JMI Laboratories using cation-adjusted Mueller Hinton Broth.

[3] = test system: E. coli; test: MIC by broth microdilution (CLSI) against E. coli; assay type: cell-based, Escherichia coli
Experimental: as §1

[4] = test system: two respiratory isolates (carrying NDM-5 and TEM-OSBL) from Russia in 2019; settings: both isolates, reported to be resistant to cefiderocol; cited from earlier work
[5] = 15 clinical MDR NDM isolates (NDM-1, NDM-4, NDM-5) from India (2018)
[6] = 100 MDR clinical isolates incl. ESBL and CRE

Compound: CSc1ccc2c(c1)N(CCC1CCCCN1C)c1ccccc1S2 (centres unmarked) [Thioridazine]
- IC50 at 24 h [1]: 22.1 µM and 8.19 µg/mL

Compound: Colistin [reference compound]
- MIC Range K. pneumoniae (NDM) [2, 5]: 1 to 32 µg/mL
- MIC50 K. pneumoniae [2, 6]: 0.5 µg/mL
- MIC90 K. pneumoniae [2, 6]: 16 µg/mL
- MIC ([2]; K. pneumoniae NCTC 13438 (MDR, Class A KPC)): 1.56 µM and 1.80 µg/mL
- MIC Range E. coli (NDM) [3, 5]: 0.5 to 1 µg/mL
- MIC50 E. coli [3, 6]: 0.5 µg/mL
- MIC90 E. coli [3, 6]: 0.5 µg/mL
- MIC range E. coli [3, 6]: 0.25 to 8 µg/mL
- MIC ([3]; E. coli NCTC 13441 (UPEC, MDR, CTX-M-15 ESBL)): 0.16 µM and 0.18 µg/mL

Compound: CC(C)(O/N=C(\C(=O)N[C@@H]1C(=O)N2C(C(=O)[O-])=C(C[N+]3(CCNC(=O)c4ccc(O)c(O)c4Cl)CCCC3)CS[C@H]12)c1csc(N)n1)C(=O)O [cefiderocol]
- MIC [4]: > 64 µg/mL
